Results reported in PMC10529583, “A new polymodal gating model of the proton-activated chloride channel” (PLOS Biology, 2023).

Columns and labels:
Format in all cases: cell-based
[1] = target: T1, human PAC channel (wt-PAC) (Homo sapiens, UniProt Q9H813, R237A); assay: whole-cell patch clamp, effect of […] compound on current; details: root pH of the mutant; inhibited, not activated
T1 construct: gene PACC1; full-length, homotrimer; pCMV-blank, transiently expressed in PACC1-knockout HEK293T cells; library screen on endogenous PAC of HEK293T cells

[2] = target: T2, human PAC channel (wt-PAC) (Homo sapiens, UniProt Q9H813); assay: whole-cell patch clamp, inhibition of proton-evoked current; details: pH 4.6, open-state pore site (site 2, second site), voltage ramp -70 to +80 mV
T2 construct: gene PACC1; full-length, homotrimer; pCMV-blank, transiently expressed in PACC1-knockout HEK293T cells; library screen on endogenous PAC of HEK293T cells

[3] = target: T3, human PAC channel (wt-PAC) (Homo sapiens, UniProt Q9H813, F196A); assay: whole-cell patch clamp, inhibition of current
T3 construct: gene PACC1; full-length, homotrimer; pCMV-blank, transiently expressed in PACC1-knockout HEK293T cells; library screen on endogenous PAC of HEK293T cells

[4] = target: T4, human PAC channel (wt-PAC) (Homo sapiens, UniProt Q9H813, F196A/R237A); assay: whole-cell patch clamp, inhibition of current
T4 construct: gene PACC1; full-length, homotrimer; pCMV-blank, transiently expressed in PACC1-knockout HEK293T cells; library screen on endogenous PAC of HEK293T cells

[5] = target: T5, human PAC channel (wt-PAC) (Homo sapiens, UniProt Q9H813, A321C); assay: whole-cell patch clamp, activation of current
T5 construct: gene PACC1; full-length, homotrimer; pCMV-blank, transiently expressed in PACC1-knockout HEK293T cells; library screen on endogenous PAC of HEK293T cells

[6] = target: T6, human PAC channel (wt-PAC) (Homo sapiens, UniProt Q9H813, A81C/L309A/P303A/T306A); assay: whole-cell patch clamp, inhibition of current
T6 construct: gene PACC1; full-length, homotrimer; pCMV-blank, transiently expressed in PACC1-knockout HEK293T cells; library screen on endogenous PAC of HEK293T cells

[7] = target: T5, human PAC channel (wt-PAC); assay: whole-cell patch clamp, inhibition of basal current
[8] = target: T7, human PAC channel (wt-PAC) (Homo sapiens, UniProt Q9H813, A81C); assay: whole-cell patch clamp, inhibition of current
T7 construct: gene PACC1; full-length, homotrimer; pCMV-blank, transiently expressed in PACC1-knockout HEK293T cells; library screen on endogenous PAC of HEK293T cells

[9] = target: T2, human PAC channel (wt-PAC); assay: whole-cell patch clamp, activation of proton-evoked current
[10] = target: T8, human PAC channel (wt-PAC) (Homo sapiens, UniProt Q9H813, P303A/T306A/L309A); assay: whole-cell patch clamp, activation of current; details: pH 5.34; activation (site 1)
T8 construct: gene PACC1; full-length, homotrimer; pCMV-blank, transiently expressed in PACC1-knockout HEK293T cells; library screen on endogenous PAC of HEK293T cells
T8 sequence (Q9H813 whole entry P303A/T306A/L309A): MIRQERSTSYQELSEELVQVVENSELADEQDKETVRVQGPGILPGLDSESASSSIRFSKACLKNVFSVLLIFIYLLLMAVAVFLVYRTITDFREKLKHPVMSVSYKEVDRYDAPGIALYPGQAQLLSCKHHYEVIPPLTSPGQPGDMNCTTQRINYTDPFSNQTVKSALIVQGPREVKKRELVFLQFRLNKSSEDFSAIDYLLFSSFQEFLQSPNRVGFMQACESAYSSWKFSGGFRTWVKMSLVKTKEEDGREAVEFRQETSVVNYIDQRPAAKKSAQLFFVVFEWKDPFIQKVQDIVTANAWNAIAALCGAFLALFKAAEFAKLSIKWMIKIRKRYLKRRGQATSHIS

T5 sequence (Q9H813 whole entry A321C): as the sequence (Q9H813 whole entry P303A/T306A/L309A) above, with A303P, A306T, A309L, A321C counted along it
T2 sequence (Q9H813 whole entry): as the sequence (Q9H813 whole entry P303A/T306A/L309A) above, with A303P, A306T, A309L counted along it
T3 sequence (Q9H813 whole entry F196A): as the sequence (Q9H813 whole entry P303A/T306A/L309A) above, with F196A, A303P, A306T, A309L counted along it
T6 sequence (Q9H813 whole entry A81C/P303A/T306A/L309A): as the sequence (Q9H813 whole entry P303A/T306A/L309A) above, with A81C counted along it
T4 sequence (Q9H813 whole entry F196A/R237A): as the sequence (Q9H813 whole entry P303A/T306A/L309A) above, with F196A, R237A, A303P, A306T, A309L counted along it
T1 sequence (Q9H813 whole entry R237A): as the sequence (Q9H813 whole entry P303A/T306A/L309A) above, with R237A, A303P, A306T, A309L counted along it
T7 sequence (Q9H813 whole entry A81C): as the sequence (Q9H813 whole entry P303A/T306A/L309A) above, with A81C, A303P, A306T, A309L counted along it

IC50 [2]: 8.3 ± 1.0 µM
IC50 [3]: 3 ± 0.5 µM
IC50 [4]: 5.7 ± 0.9 µM
EC50 [5]: 1 ± 0.4 µM
IC50 [6]: ~200 µM
IC50 [7]: 11.8 ± 1.9 µM
IC50 [8]: 18.3 ± 3 µM
EC50 [9]: 0.6 ± 0.2 µM
Compound: Cc1occc1C(=O)Nc1ccc(I)cc1C(=O)O [C77304, 5–iodo–2–(2–methylfuran–3–carboxamido)benzoicacid]
whole-cell patch clamp, effect of 5 μM compound on current [1]: currents mediated by the PAC/R237A mutant, but not any others, were significantly inhibited
whole-cell patch clamp, activation of current [10]: the P303A/T306A/L309A mutations did not affect the activation effect of C77304 on the channel
